biological target: T1, VEGFR2 (KDR) (Homo sapiens, UniProt P35968); experiment: In Vitro Receptor Tyrosine Kinase Assay (VEGF Receptor KDR); type: biochemical; conditions: recombinant GST-VEGFR2 806-1356, DELFIA assay, ATP 0.6 uM, enzyme 5 nM; read-out: VEGFR_IC50_UM
T1 construct: made in house; host or cells: Sf9 cells (Spodoptera frugiperda), baculovirus (Bac-to-Bac)
Excerpt: In Vitro Receptor Tyrosine Kinase Assay (VEGF Receptor KDR)
This test measures the ability of compounds to inhibit the enzymatic activity of recombinant human VEGF receptor enzymatic activity.
A 1.6-kb cDNA corresponding to the catalytic domain of VEGFR2 (KDR) (Genbank accession number AF035121 amino acid 806 to 1356) is cloned into the Pst I site of the pDEST20 Gateway vector (Invitrogen) for the production of a GST-tagged version of that enzyme. This construct is used to generate recombinant baculovirus using the Bac-to-Bac™ system according to the manufacturer's instructions (Invitrogen).
The GST-VEGFR2806-1356 protein is expressed in Sf9 cells (Spodoptera frugiperda) upon infection with recombinant baculovirus construct. Briefly, Sf9 cells grown in suspension and maintained in serum-free medium (Sf900 II supplemented with gentamycin) at a cell density of about 2×10^6 cells/ml are infected with the above-mentioned viruses at a multiplicity of infection (MOI) of 0.1 during 72 hours at 27° C. with agitation at 120 rpm on a rotary shaker. Infected cells are harvested by centrifugation at 398 g for 15 min. Cell pellets are frozen at […] until purification is performed.
All steps described in cell extraction and purification are performed at 4° C. Frozen Sf9 cell pellets infected with the GST-VEGFR2806-1356 recombinant baculovirus are thawed and gently resuspended in Buffer A (PBS pH 7.3 supplemented with 1 μg/ml pepstatin, 2 μg/ml Aprotinin and leupeptin, 50 μg/ml PMSF, 50 μg/ml TLCK and 10 μM E64 and 0.5 mM DTT) using 3 ml of buffer per gram of cells. Suspension is Dounce homogenized and 1% Triton X-100 is added to the homogenate after which it is centrifuged at 22500 g, 30 min., 4° C. The supernatant (cell extract) is used as starting material for purification of GST-VEGFR2806-1356.
The supernatant is loaded onto a GST-agarose column (Sigma) equilibrated with PBS pH 7.3. Following a four column volume (CV) wash with PBS pH 7.3+1% Triton X-100 and 4 CV wash with buffer B (50 mM Tris pH 8.0, 20% glycerol and 100 mM NaCl), bound proteins are step eluted with 5 CV of buffer B supplemented with 5 mM DTT and 15 mM glutathion. GST-VEGFR2806-1356 enriched fractions from this chromatography step are pooled based on U.V. trace i.e. fractions with high O.D.280. Final GST-VEGFR2806-1356 protein preparations concentrations are about 0.7 mg/ml with purity approximating 70%. Purified GST-VEGFR2806-1356 protein stocks are aliquoted and frozen at −80° C. prior to use in enzymatic assay.
Inhibition of VEGFR/KDR is measured in a DELFIA™ assay (Perkin Elmer). The substrate poly(Glu4,Tyr) is immobilized onto black high-binding polystyrene 96-well plates. The coated plates are washed and stored at 4° C. During the assay, the enzyme is pre-incubated with inhibitor and Mg-ATP on ice in polypropylene 96-well plates for 4 minutes, and then transferred to the coated plates. The subsequent kinase reaction takes place at 30° C. for 10-minutes. ATP concentrations in the assay are 0.6 uM for VEGFR/KDR (2× the Km). Enzyme concentration is 5 nM. After incubation, the kinase reactions are quenched with EDTA and the plates are washed. Phosphorylated product is detected by incubation with Europium-labeled anti-phosphotyrosine MoAb. After washing the plates, bound MoAb is detected by time-resolved fluorescence in a Gemini SpectraMax reader (Molecular Devices). Compounds are evaluated over a range of concentrations, and IC50 values (concentration of compounds giving 50% inhibition of enzymatic activity) are determined.

T1 sequence (P35968 806-1356): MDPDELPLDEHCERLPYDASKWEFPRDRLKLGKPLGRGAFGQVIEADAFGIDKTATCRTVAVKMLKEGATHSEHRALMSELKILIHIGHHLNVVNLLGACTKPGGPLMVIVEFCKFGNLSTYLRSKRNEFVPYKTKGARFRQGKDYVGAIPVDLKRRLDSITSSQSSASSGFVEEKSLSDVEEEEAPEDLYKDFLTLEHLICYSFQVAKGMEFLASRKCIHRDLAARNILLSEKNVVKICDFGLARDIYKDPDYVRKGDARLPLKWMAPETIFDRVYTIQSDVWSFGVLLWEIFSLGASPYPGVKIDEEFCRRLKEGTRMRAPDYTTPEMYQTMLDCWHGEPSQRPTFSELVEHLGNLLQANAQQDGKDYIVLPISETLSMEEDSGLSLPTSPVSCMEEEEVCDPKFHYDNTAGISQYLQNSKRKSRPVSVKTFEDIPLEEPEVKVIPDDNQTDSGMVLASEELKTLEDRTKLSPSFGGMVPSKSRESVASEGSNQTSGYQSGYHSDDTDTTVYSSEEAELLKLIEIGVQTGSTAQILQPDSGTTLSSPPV

SMILES	IC50 [nM]
COCCN(Cc1ccc(-c2cc3nccc(Oc4ccc(NC(=O)NC5CN(C(C)=O)C5)cc4F)c3s2)nc1)C(C)=O [Compound 70, N-((6-(7-(4-(3-(1-Acetylazetidin-3-yl)ureido)-2-fluorophenoxy)thieno[3,2-b]pyridin-2-yl)pyridin-3-yl)methyl)-N-(2-methoxyethyl)acetamide]	75
CC(=O)N1CC(NC(=O)Nc2ccc(Oc3ccnc4cc(-c5ccc(CN6CCC(NC(=O)OC(C)(C)C)CC6)cn5)sc34)c(F)c2)C1 [Compound 40, tert-Butyl 1-((6-(7-(4-(3-(1-acetylazetidin-3-yl)ureido)-2-fluorophenoxy)thieno[3,2-b]pyridin-2-yl)pyridin-3-yl)methyl)piperidin-4-ylcarbamate]	280
CC(=O)N1CC(NC(=O)Nc2ccc(Oc3ccnc4cc(-c5ccc(CN6CCN(C(=O)CO)CC6)cn5)sc34)c(F)c2)C1 [Compound 47-A]	68
CNC1CCN(Cc2ccc(-c3cc4nccc(Oc5ccc(NC(=O)NC6CN(C(C)=O)C6)cc5F)c4s3)nc2)CC1 [Compound 45]	70

Next, values leading:

IC50 [nM]	SMILES
25	O=C(Nc1ccc(Oc2ccnc3cc(-c4ccc(CN5CCOC5=O)cn4)sc23)c(F)c1)NC1COC1 [Compound 105]
17	CC(C)(C)OC(=O)N1CC(NC(=O)Nc2ccc(Oc3ccnc4cc(-c5ccc(CN6CCCC6=O)cn5)sc34)c(F)c2)C1 [Compound 110]
37	CC(=O)N1CC(NC(=O)Nc2ccc(Oc3ccnc4cc(-c5ccc(CN6CCCC6=O)cn5)sc34)c(F)c2)C1 [Compound 112, 1-(1-Acetylazetidin-3-yl)-3-(3-fluoro-4-(2-(5-((2-oxopyrrolidin-1-yl)methyl)pyridin-2-yl)thieno[3,2-b]pyridin-7-yloxy)phenyl)urea]

Reference: patent publication US20130090327A1, “Inhibitors of Protein Tyrosine Kinase Activity” (METHYLGENE INC., priority 2011, published 2013)
